Measurements from patent US11162951B2, “Membrane-impermeant fluorogenic chromophores” (PARIS SCIENCES ET LETTRES, priority 2017, dated 2021).
Where “and” joins values, the source holds several entries; their conditions need not be identical. Equal entries are not always repeated. Entries after “also recorded” stand apart in the source; their conditions may differ.

How the values were obtained:
[1] = biological target: T1, FAST (variant of the photoactive yellow protein (PYP), SEQ ID NO: 3) (Halorhodospira halophila, UniProt P16113, C69G/D97P/F96I/M100R/Q99S/T101G/T95M/Y94W/Y98T); assay: Physico-chemical (absorption/fluorescence) properties of FAST:fluorogen complexes; format: physicochemical; details: for Brightness (ε×ϕ) / ε, molar absorption coefficient at λabs / λabs, wavelength of maximal absorption / λem, wavelength of maximal emission / ϕ, fluorescence quantum yield: FAST:fluorogen complex in PBS pH 7.4
T1 construct: His tag; made in house; host or cells: Rosetta(DE3)pLysS E. coli
T1 sequence (P16113 whole entry C69G/Y94W/T95M/F96I/D97P/Y98T/Q99S/M100R/T101G): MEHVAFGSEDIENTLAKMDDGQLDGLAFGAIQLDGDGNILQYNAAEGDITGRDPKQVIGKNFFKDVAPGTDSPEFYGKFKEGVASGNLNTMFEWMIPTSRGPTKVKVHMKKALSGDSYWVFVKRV
Experimental: In an embodiment, the fluorescence quantum yields after one-photon excitation ϕ are calculated from the relation: […]
Methods for measuring the brightness are well-known in the art. Brightness corresponds to the fluorescence output per emitter and is the product of the molar absorption coefficient (at the excitation wavelength) and the fluorescence quantum yield.
(§1) His-tagged FAST was expressed in Rosetta(DE3)pLysS E. coli (New England Biolabs). Cells were grown at 37° C. in Lysogeny Broth (LB) medium to OD600 nm 0.6. Expression was induced for 4 h by adding isopropyl β-D-1-thiogalactopyranoside (IPTG) to a final concentration of 1 mM. Cells were harvested by centrifugation (6,000×g for 15 min at 4° C.) and frozen. The cell pellet was resuspended in lysis buffer (phosphate buffer 50 mM, NaCl 150 mM, MgCl2 2.5 mM, protease inhibitor, DNase, pH 7.4) and sonicated (5 min at 20% of amplitude). The lysate was incubated for 2 h at 4° C. to allow DNA digestion by DNase. Cellular fragments were removed by centrifugation (15,000×g for 1 h at 4° C.). The supernatant was incubated overnight at 4° C. under gentle agitation with Ni-NTA agarose beads in phosphate buffered saline (PBS) (sodium phosphate 50 mM, NaCl 150 mM, pH 7.4) complemented with 10 mM Imidazole. Beads were washed with 20 volumes of PBS containing 20 mM Imidazole, and with 5 volumes of PBS complemented with 40 mM Imidazole. His-tagged proteins were eluted with 5 volumes of PBS complemented with 0.5 M Imidazole, followed by dialysis with PBS.
(§2) UV/Vis absorption spectra were recorded in 1 cm×1 cm quartz cuvettes (Hellma) on a diode array UV/Vis spectrophotometer (Evolution array, Thermo Scientific). Corrected fluorescence spectra upon one-photon excitation were recorded with a Photon Technology International QuantaMaster QM-1 spectrofluorimeter (PTI, Monmouth Junction, N.J.) equipped with a Peltier cell holder (TLC50, Quantum Northwest, Shoreline, Wash.).
(§3) Physico-chemical properties of FAST:fluorogen complexes in PBS pH 7.4 are described in Table 2 below: λabs, wavelength of maximal absorption; λem, wavelength of maximal emission; ε, molar absorption coefficient at λabs; ϕ, fluorescence quantum yield; KD affinity constant. The brightness is equal to ε×ϕ.

[2] = biological target: T1, FAST (variant of the photoactive yellow protein (PYP), SEQ ID NO: 3); assay: biochemical; format: binding; details: for Kd: KD affinity constant, FAST:fluorogen complex in PBS pH 7.4
Experimental: In an embodiment, the thermodynamic dissociation constant KD is determined by spectrofluorometric titration as described in the Examples.
as §1, §2, §3

[3] = test system: HeLa cells expressing FAST fused to mCherry in the cytoplasm; assay: Cell exclusion after prolonged exposure, confocal imaging; format: cell-based; details: 5 μM, two hours, cytoplasmic FAST-mCherry
Experimental: (§4) The plasmid pAG211 for mammalian expression of FAST (fused also to mCherry as additional transfection marker) at the outer plasma membrane was obtained by inserting the sequence coding the protein of interest within the pDisplay plasmid (ThermoFisher) using Sal I and Bgl II restriction sites. The plasmid pAG96 for cytoplasmic expression of FAST fused to mCherry was previously reported (Plamont, M.-A. et al., 2016).
(§5) HeLa cells were cultured in DMEM supplemented with phenol red, Glutamax I, 10% (vol/vol) fetal calf serum (FCS), and 1% penicillin-streptomycin at 37° C. within a 5% CO2 atmosphere. For microscopic imaging, cells were seeded in μDish or μSlide IBIDI (Biovalley) coated with poly-L-lysine. Cells were transiently transfected using Genejuice (Merck) according to the manufacturer's protocol. Before imaging, cells were washed with PBS, and treated with DMEM media (without serum and phenol red) containing the fluorogens at the indicated concentration. Cells were imaged directly without washing.
(§6) Confocal micrographs were acquired on a Zeiss LSM 710 Laser Scanning Microscope equipped with a Plan Apochromat 63×/1.4 NA oil immersion objective. ZEN software was used to collect the data. Images were analyzed with Image J. Flow cytometry analyses were performed on an Accuri C6 cytometer (BD Biosciences).
Cell exclusion after prolonged exposure was then evaluated. […]

[4] = test system: HeLa cells displaying FAST on the extracellular side (Ig κ-chain leader / PDGFR transmembrane domain); assay: Selective labeling of cell-surface FAST-tagged proteins, confocal imaging; format: cell-based; details: for Localisation of fluorescent labeling of FAST-tagged protein: 5 min
Experimental: as §4, §5, §6
Next, the use of HBRAA-3E for the selective labeling of cell-surface FAST-tagged proteins was studied. A polypeptide was engineered comprising a FAST in between a murine Ig κ-chain leader sequence and the platelet derived growth factor receptor (PDGFR) transmembrane domain. FAST was fused at the […] of the PDGFR transmembrane domain, which anchors the protein to the plasma membrane. The resulting FAST-tagged protein was expressed transiently in HeLa cells.

| SMILES | Brightness (ε×ϕ) [1] | ε, molar absorption coefficient at λabs [1] [mM⁻¹ cm⁻¹] | λabs, wavelength of maximal absorption [1] [nm] | λem, wavelength of maximal emission [1] [nm] | ϕ, fluorescence quantum yield [1] [%] | Affinity for FAST, in words [2] | Kd [2] | further results |
| --- | --- | --- | --- | --- | --- | --- | --- | --- |
| O=C1NC(=S)S/C1=C\c1ccc(O)cc1 [HBR, 4-hydroxybenzylidene rhodanine, reference compound] | 4,000 | 44 | 467 | 527 | 9 | – | – | – |
| O=C(O)CN1C(=O)/C(=C/c2ccc(O)cc2)SC1=S [HBRAA, (Z)-2-(5-(4-hydroxybenzylidene)-4-oxo-2-thioxothiazolidin-3-yl)acetic acid] | – | – | 488 | 555 | – | almost no affinity for FAST | > 20000 nM | – |
| Cc1cc(/C=C2\SC(=S)N(CC(=O)O)C2=O)c(C)cc1O [HBRAA-2,5DM, (Z)-2-(5-(4-hydroxy-2,5-dimethylbenzylidene)-4-oxo-2-thioxothiazolidin-3-yl)acetic acid] | 3,200 | 63 | 519 | 566 | 5 | none of the complexes formed by di-substituted compounds HBRAA-2,5DM, HBRAA-3,5DM and HBRAA-3,5DMO has an affinity higher than the one of HBRAA-3M | 5400 nM | – |
| COc1cc(O)ccc1/C=C1\SC(=S)N(CC(=O)O)C1=O [HBRAA-2OM, (Z)-2-(5-(4-hydroxy-2-methoxybenzylidene)-4-oxo-2-thioxothiazolidin-3-yl)acetic acid] | about 2,800 | 55 | 497 | 537 | 5 | – | 500 nM and 480 nM | Brightness (ε×ϕ) ([1]; listed as FAST:HBRAA-2OM): 2,800 |
| Cc1cc(/C=C2\SC(=S)N(CC(=O)O)C2=O)cc(C)c1O [HBRAA-3,5DM, (Z)-2-(5-(4-hydroxy-3,5-dimethylbenzylidene)-4-oxo-2-thioxothiazolidin-3-yl)acetic acid] | – | – | 522 | 571 | 4 | none of the complexes formed by di-substituted compounds HBRAA-2,5DM, HBRAA-3,5DM and HBRAA-3,5DMO has an affinity higher than the one of HBRAA-3M | > 20000 nM | – |
| COc1cc(/C=C2\SC(=S)N(CC(=O)O)C2=O)cc(OC)c1O [HBRAA-3,5DOM, (Z)-2-(5-(4-hydroxy-3,5-dimethoxybenzylidene)-4-oxo-2-thioxothiazolidin-3-yl)acetic acid] | – | – | 532 | 606 | 1 | none of the complexes formed by di-substituted compounds HBRAA-2,5DM, HBRAA-3,5DM and HBRAA-3,5DMO has an affinity higher than the one of HBRAA-3M | > 20000 nM | – |
| CCc1cc(/C=C2\SC(=S)N(CC(=O)O)C2=O)ccc1O [HBRAA-3E, (Z)-2-(5-(3-ethyl-4-hydroxybenzylidene)-4-oxo-2-thioxothiazolidin-3-yl)acetic acid] | about 4,900 | 61 | 505 | 559 | 8 | – | ~1300 nM and 1300 nM | Red shift in absorption compared to FAST:HMBR [1]: 25 nm; Red shift in emission compared to FAST:HMBR [1]: 20 nm; Brightness (ε×ϕ) ([1]; listed as FAST:HBRAA-3E): 4,900; Intracellular labeling (cell exclusion) [3]: no intracellular labeling; Localisation of fluorescent labeling of FAST-tagged protein ([4]; 5 μM): fluorescent labeling only at the plasma membrane; also recorded: revealed only surface-exposed proteins; Intracellular labeling upon longer incubation ([4]; 5 μM, 1 h): no intracellular labeling |
| Cc1cc(/C=C2\SC(=S)N(CC(=O)O)C2=O)ccc1O [HBRAA-3M, (Z)-2-(5-(4-hydroxy-3-methylbenzylidene)-4-oxo-2-thioxothiazolidin-3-yl)acetic acid] | 3,400 | 56 | 502 | 557 | 6 | – | 6400 nM | Brightness compared with FAST:HMBR ([1]; in words): three-fold lower brightness |
| CCOc1cc(/C=C2\SC(=S)N(CC(=O)O)C2=O)ccc1O [HBRAA-3OE, (Z)-2-(5-(4-hydroxy-3-ethoxybenzylidene)-4-oxo-2-thioxothiazolidin-3-yl)acetic acid] | about 3,700 | 62 | 525 | 575 | 6 | – | 1700 nM | Brightness (ε×ϕ) ([1]; listed as FAST:HBRAA-3OE): 3,700; Shift of absorption and emission of the FAST complex compared with HBRAA-3E ([1]; in words): further red-shifted the absorption and the emission |
| COc1cc(/C=C2\SC(=S)N(CC(=O)O)C2=O)ccc1O [HBRAA-3OM, (Z)-2-(5-(4-hydroxy-3-methoxybenzylidene)-4-oxo-2-thioxothiazolidin-3-yl)acetic acid] | – | – | 520 | 572 | 2 | almost no affinity with FAST | > 20000 nM | – |
| Cc1cc(/C=C2\SC(=S)NC2=O)ccc1O [HMBR, 4-hydroxy-3-methylbenzylidene rhodanine, reference compound] | – | – | – | – | – | – | – | Localisation of fluorescent labeling of FAST-tagged protein ([4]; 5 μM): labeling of FAST-tagged proteins both at the membrane and within the secretory pathway; also recorded: revealed membrane and intracellular proteins; Labeling after subsequent addition to cells pre-treated 1 h with HBRAA-3E ([4]; immediate imaging (<10 s)): revealed proteins within the secretory pathway |
